Data taken from US9133158B2, “Bicyclic dihydroisoquinoline-1-one derivatives” (Hoffmann-La Roche Inc., priority 2011, dated 2015).

Columns and labels:
human CYP11B1 = target: T1, human CYP11B1 (Homo sapiens, UniProt P15538); test: G-402 cellular enzyme assay, human CYP11B1 (cortisol release, HTRF); type: cell-based; conditions: G-402 cells, 1 μM Deoxycortisol
T1 construct: expressed in transfected cells
T1 sequence (P15538 25-503): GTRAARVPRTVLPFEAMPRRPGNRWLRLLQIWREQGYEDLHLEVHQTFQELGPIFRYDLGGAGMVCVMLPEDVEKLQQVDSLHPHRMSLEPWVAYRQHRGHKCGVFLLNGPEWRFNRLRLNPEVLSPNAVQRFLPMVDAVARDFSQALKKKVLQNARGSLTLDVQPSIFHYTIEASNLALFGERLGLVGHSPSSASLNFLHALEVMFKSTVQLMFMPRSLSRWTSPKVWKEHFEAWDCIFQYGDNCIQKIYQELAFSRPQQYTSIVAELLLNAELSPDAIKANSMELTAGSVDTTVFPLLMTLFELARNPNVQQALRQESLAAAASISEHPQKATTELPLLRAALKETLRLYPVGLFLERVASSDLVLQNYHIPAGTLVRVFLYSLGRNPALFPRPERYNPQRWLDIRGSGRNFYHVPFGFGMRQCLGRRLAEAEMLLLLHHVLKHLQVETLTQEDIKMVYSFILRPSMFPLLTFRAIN
Description: (§1) Herein we identified the use of the G-402 cell line as a host cell to ectopically express (transiently or stably) enzymes of the CYP11 family. Specifically we developed stable G-402 cells expressing ectopically human CYP11B1, human CYP11B2, human CYP11A1, cynmolgus CYP11B1 or cynomolgus CYP11B2 enzyme activity. Importantly the identified cell line G-402 expresses co-factors (adrenodoxin and adrenodoxin reductase) important for the activity of the CYP11 family and no relevant enzyme activity of the CYP11 family (in comparison to H295R cells) was detected in these cells. Therefore the G-402 cell line is uniquely suited as a host cell for the ectopic expression of enzymes from the CYP11 family.
(§2) G-402 cells can be obtained from ATCC(CRL-1440) and were originally derived from a renal leiomyoblastoma.
(§3) The expression plasmids contain the ORF for either human/cyno CYP11B1 or CYP11B2 under the control of a suitable promoter (CMV-promoter) and a suitable resistance marker (neomycin). Using standard techniques the expression plasmid is transfected into G-402 cells and these cells are then selected for expressing the given resistance markers. Individual cell-clones are then selected and assessed for displaying the desired enzymatic activity using 11-Deoxycorticosterone (Cyp11B2) or 11-Deoxycortisol (Cyp11B1) as a substrate.
(§4) G-402 cells expressing CYP11 constructs were established as described above and maintained in McCoy's 5a Medium Modified, ATCC Catalog No. 30-2007 containing 10% FCS and 400 μg/ml G418 (Geneticin) at 37° C. under an atmosphere of 5% CO2/95% air.
(§5) Cellular enzyme assays were performed in DMEM/F12 medium containing 2.5% charcoal treated FCS and appropriate concentration of substrate (0.3-10 uM 11-Deoxycorticosterone, 11-Deoxycortisol or Corticosterone). For assaying enzymatic activity, cells were plated onto 96 well plates and incubated for 16 h. An aliquot of the supernatant is then transferred and analyzed for the concentration of the expected product (Aldosterone for CYP11B2; Cortisol for CYP11B1). The concentrations of these steroids can be determined using HTRF assays from CisBio analyzing either Aldosterone or Cortisol.
(§6) Inhibition of the release of produced steroids can be used as a measure of the respective enzyme inhibition by test compounds added during the cellular enzyme assay. The dose dependent inhibition of enzymatic activity by a compound is calculated by means of plotting added inhibitor concentrations (x-axes) vs. measured steroid/product level (y-axes). The inhibition is then calculated by fitting the following 4-parameter sigmoidal function (Morgan-Mercer-Flodin (MMF) model) to the raw data points using the least squares method:
(§7) [formula] wherein, A is the maximum y value, B is the EC50 factor determined using XLFit, C is the minimum y value and D is the slope value.
(§8) EC50 values for compounds claimed herein were tested with the G402-based assay system described. Cyp11B2 enzyme activity was tested in presence of 1 μM Deoxycorticosterone and variable amounts of inhibitors; Cyp11B1 enzyme activity was tested in presence of 1 μM Deoxycortisol and variable amounts of inhibitors.

human CYP11B2 = target: T2, human CYP11B2 (Homo sapiens, UniProt P19099); test: G-402 cellular enzyme assay, human CYP11B2 (aldosterone release, HTRF); type: cell-based; conditions: G-402 cells, 1 μM Deoxycorticosterone
T2 construct: expressed in transfected cells
T2 sequence (P19099 25-503): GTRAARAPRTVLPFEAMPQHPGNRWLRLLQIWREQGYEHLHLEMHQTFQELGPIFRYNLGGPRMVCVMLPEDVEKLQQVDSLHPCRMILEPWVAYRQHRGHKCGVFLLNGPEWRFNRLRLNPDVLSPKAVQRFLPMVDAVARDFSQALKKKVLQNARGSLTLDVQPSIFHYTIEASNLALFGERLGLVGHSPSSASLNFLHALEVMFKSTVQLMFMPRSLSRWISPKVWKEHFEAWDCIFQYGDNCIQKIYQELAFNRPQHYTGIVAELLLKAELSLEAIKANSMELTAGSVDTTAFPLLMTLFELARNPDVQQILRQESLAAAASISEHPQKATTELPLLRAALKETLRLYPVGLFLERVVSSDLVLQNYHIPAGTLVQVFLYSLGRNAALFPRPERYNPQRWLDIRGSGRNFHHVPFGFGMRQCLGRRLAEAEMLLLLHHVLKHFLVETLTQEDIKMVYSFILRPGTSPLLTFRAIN
Description: as §1, §2, §3, §4, §5, §6, §7, §8

Row | Compound | EC50 (human CYP11B1) [nM] | EC50 (human CYP11B2) [nM]
1 | CCC(=O)N[C@@H]1CCCc2c1cncc2N1C(=O)c2ccc(Cl)cc2[C@@H]1C (single isomer, unassigned) [Example 359, N-[(R or S)-4-((S or R)-5-Chloro-3-methyl-1-oxo-1,3-dihydro-isoindol-2-yl)-5,6,7,8-tetrahydro-isoquinolin-8-yl]-propionamide] | 411 | 6
2 | Cc1ncccc1C(=O)NCc1cncc(N2C(=O)c3ccc(Cl)cc3C2(C)C)c1 [Example 439, N-[5-(6-Chloro-1,1-dimethyl-3-oxo-1,3-dihydro-isoindol-2-yl)-pyridin-3-ylmethyl]-2-methyl-nicotinamide] | 6900 | 119
3 | CCC(=O)NC1CCCc2c1cncc2N1Cc2cc(Cl)ccc2C1=O (single isomer, unassigned) [Example 314, N-[(R or S)-4-(5-Chloro-1-oxo-1,3-dihydro-isoindol-2-yl)-5,6,7,8-tetrahydro-isoquinolin-8-yl]-propionamide] | 5230 | 28.2
4 | COC(C)(C)c1cncc(N2CCc3cc(Cl)ccc3C2=O)c1 [Example 24, 6-Chloro-2-[5-(1-methoxy-1-methyl-ethyl)-pyridin-3-yl]-3,4-dihydro-2H-isoquinolin-1-one] | 21.4 | 5.6
5 | O=C1c2ccc(Cl)cc2CCN1c1cncc(Cc2cc(F)cc(F)c2)c1 [Example 211, 6-Chloro-2-[5-(3,5-difluoro-benzyl)-pyridin-3-yl]-3,4-dihydro-2H-isoquinolin-1-one] | 53.2 | 4.4
6 | CC(O)(c1cc(F)cc(F)c1)c1cncc(N2CCc3cc(Cl)ccc3C2=O)c1 (stereo not drawn) [Example 37, 6-Chloro-2-{5-[1-(3,5-difluoro-phenyl)-1-hydroxy-ethyl]-pyridin-3-yl}-3,4-dihydro-2H-isoquinolin-1-one] | 149 | 9.2
7 | CC1(C)c2cc(Cl)ccc2C(=O)N1c1cncc(CN2CCCS2(=O)=O)c1 [Example 409, 5-Chloro-2-[5-(1,1-dioxo-1λ6-isothiazolidin-2-ylmethyl)-pyridin-3-yl]-3,3-dimethyl-2,3-dihydro-isoindol-1-one] | 429 | 6.9
8 | O=C1c2ccc(Cl)cc2C(C2CC2)N1c1cncc(F)c1 (stereo not drawn) [Example 297, 5-Chloro-3-cyclopropyl-2-(5-fluoro-pyridin-3-yl)-2,3-dihydro-isoindol-1-one] | 12800 | 207
9 | Cc1nccn1Cc1cncc(N2Cc3cc(Cl)ccc3C2=O)c1 [Example 111, 5-Chloro-2-[5-(2-methyl-imidazol-1-ylmethyl)-pyridin-3-yl]-2,3-dihydro-isoindol-1-one] | 923 | 64.2
10 | CC(O)c1ccncc1N1CCc2cc(Cl)ccc2C1=O (stereo not drawn) [Example 55, 6-Chloro-2-[4-(1-hydroxy-ethyl)-pyridin-3-yl]-3,4-dihydro-2H-isoquinolin-1-one] | 9850 | 343
11 | CC(c1cncc(N2CCc3cc(Cl)ccc3C2=O)c1)N1CCOC1=O (stereo not drawn) [Example 275, 6-Chloro-2-{5-[1-(2-oxo-oxazolidin-3-yl)-ethyl]-pyridin-3-yl}-3,4-dihydro-2H-isoquinolin-1-one] | 7820 | 731
12 | CS(=O)(=O)NC1CCc2c1cncc2N1Cc2cc(Cl)ccc2C1=O (single isomer, unassigned) [Example 334, N-[(R or S)-4-(5-Chloro-1-oxo-1,3-dihydro-isoindol-2-yl)-6,7-dihydro-5H-[2]pyrindin-7-yl]-methanesulfonamide] | 34600 | 383
13 | COCc1c(F)cncc1N1CCc2cc(Cl)ccc2C1=O [Example 75, 6-Chloro-2-(5-fluoro-4-methoxymethyl-pyridin-3-yl)-3,4-dihydro-2H-isoquinolin-1-one] | 2760 | 166
14 | Cc1cnn(Cc2cncc(N3CCc4cc(Cl)ccc4C3=O)c2)c1 [Example 187, 6-Chloro-2-[5-(4-methyl-pyrazol-1-ylmethyl)-pyridin-3-yl]-3,4-dihydro-2H-isoquinolin-1-one] | 2230 | 137
15 | CC1(C)c2cc(Cl)ccc2C(=O)N1c1cncc(CNC(=O)c2ccncc2Cl)c1 [Example 437, 3-Chloro-N-[5-(6-chloro-1,1-dimethyl-3-oxo-1,3-dihydro-isoindol-2-yl)-pyridin-3-ylmethyl]-isonicotinamide] | 1640 | 77.6

Continued by falling EC50 (human CYP11B1), values first:

Row | EC50 (human CYP11B1) [nM] | EC50 (human CYP11B2) [nM] | Compound
16 | 59800 | 2340 | CC1(C)CN(c2cncc(F)c2)C(=O)c2ccc(Cl)cc21 [Example 104, 6-Chloro-2-(5-fluoro-pyridin-3-yl)-4,4-dimethyl-3,4-dihydro-2H-isoquinolin-1-one]
17 | 2860 | 59.6 | COc1cncc(N2C(=O)c3ccc(Cl)cc3CC2C)c1 (stereo not drawn) [Example 85, 6-Chloro-2-(5-methoxy-pyridin-3-yl)-3-methyl-3,4-dihydro-2H-isoquinolin-1-one]
18 | 2740 | 58.9 | CC(=O)NCc1cncc(N2C(=O)c3ccc(Cl)cc3C2(C)C)c1 [Example 400, N-[5-(6-Chloro-1,1-dimethyl-3-oxo-1,3-dihydro-isoindol-2-yl)-pyridin-3-ylmethyl]-acetamide]
19 | 1250 | 123 | CC1c2cc(Cl)ccc2C(=O)N1c1cccnc1 (stereo not drawn) [Example 118, 5-Chloro-3-methyl-2-pyridin-3-yl-2,3-dihydro-isoindol-1-one]
20 | 1050 | 85.9 | O=C1c2ccc(Cl)cc2CCN1c1cncc(C(O)C2CC2)c1 (stereo not drawn) [Example 20, 6-Chloro-2-[5-(cyclopropyl-hydroxy-methyl)-pyridin-3-yl]-3,4-dihydro-2H-isoquinolin-1-one]
21 | 914 | 7.4 | CC1(C)c2cc(Cl)ccc2C(=O)N1c1cncc(OC2CCN(S(C)(=O)=O)C2)c1 (stereo not drawn) [Example 445, 5-Chloro-2-[5-(1-methanesulfonyl-pyrrolidin-3-yloxy) -pyridin-3-yl]-3,3-dimethyl-2,3-dihydro-isoindol-1-one]
22 | 300 | 63.6 | O=C1c2ccc(Cl)cc2CCN1c1cncc(Cc2c(Cl)cccc2Cl)c1 [Example 214, 6-Chloro-2-[5-(2,6-dichloro-benzyl)-pyridin-3-yl]-3,4-dihydro-2H-isoquinolin-1-one]
23 | 114 | 5.8 | CC1(C)c2cc(Cl)ccc2C(=O)N1c1cncc(OC2CC2)c1 [Example 306, 5-Chloro-2-(5-cyclopropoxy-pyridin-3-yl)-3,3-dimethyl-2,3-dihydro-isoindol-1-one]
24 | 14.7 | 0.9 | Cn1cc(Cc2cncc(N3CCc4cc(Cl)ccc4C3=O)c2)cn1 [Example 209, 6-Chloro-2-[5-(1-methyl-1H-pyrazol-4-ylmethyl)-pyridin-3-yl]-3,4-dihydro-2H-isoquinolin-1-one]
